# Assay results: patent publication US20030162818A1, “Acylsulfonamide derivative” (AJINOMOTO CO. INC., priority 1997, published 2003)
row,SMILES,melting point [°C]
1,O=C(NS(=O)(=O)c1ccccc1NC(=O)c1cccc(OCc2ccccc2)c1)Oc1ccccc1,163 to 164
2,CCCCCCCCNC(=O)NS(=O)(=O)c1ccccc1NC(=O)c1cccc(OCc2ccccc2)c1,124 to 125
3,"O=C(Nc1ccccc1S(=O)(=O)NC(=O)c1cccc(OCc2ccccc2)c1)c1cccc(OCc2ccccc2)c1 [Example 1, N-[2-(3-Benzyloxybenzamido)benzenesulfonyl]-3-benzyloxybenzamide]",172 to 173
4,"CC(=O)NS(=O)(=O)c1ccccc1NC(=O)c1cccc(OCc2ccccc2)c1 [Example 3, N-[2-(3-Benzyloxybenzamido)benzenesulfonyl]acetamide]",195 to 196
5,"CCCCCC(=O)NS(=O)(=O)c1ccccc1NC(=O)c1cccc(OCc2ccccc2)c1 [Example 8, N-[2-(3-Benzyloxybenzamido)benzenesulfonyl]-n-hexanamide]",133 to 134
6,"O=C(Nc1ccccc1S(=O)(=O)NC(=O)c1ccc(F)cc1F)c1cccc(OCc2ccccc2)c1 [Example 11, N-[2-(3-Benzyloxybenzamido)benzenesulfonyl]-2,4-difluorobenzamide]",208 to 209
7,"CCCCCC(=O)NS(=O)(=O)c1ccccc1NC(=O)c1cccc(OCc2ccc([N+](=O)[O-])cc2)c1 [Example 21, N-[2-[3-(4-Nitrobenzyloxy)benzamido]benzenesulfonyl]hexanamide]",138 to 141
8,"COc1ccc(COc2cccc(C(=O)Nc3ccccc3S(=O)(=O)NC(C)=O)c2)cc1 [Example 23, N-[2-[3-(4-methoxybenzyloxy)benzamido]benzenesulfonyl]acetamide]",114 to 117
9,"CCCCCC(=O)NS(=O)(=O)c1ccccc1NC(=O)c1cccc(OCc2ccc(OC)cc2)c1 [Example 24, N-[2-[3-(4-Methoxybenzyloxy)benzamido]benzenesulfonyl]hexanamide]",154 to 157
10,"CCCCCCCOc1cccc(C(=O)Nc2ccccc2S(=O)(=O)NC(C)=O)c1 [Example 35, N-[2-(3-Heptyloxybenzamido)benzenesulfonyl]acetamide]",194 to 195
11,"CCCCCCCOc1cccc(C(=O)Nc2ccccc2S(=O)(=O)NC(=O)CCCCC)c1 [Example 36, N-[2-(3-Heptyloxybenzamido)benzenesulfonyl]hexanamide]",200 to 201
12,"CC(C)(C)C(=O)NS(=O)(=O)c1ccccc1NC(=O)c1ccc(C#Cc2ccccc2)cc1 [Example 41, N-[2-(4-Phenylethynylbenzamido)benzenesulfonyl]pivalamide]",236 to 237

# Now from value to compound:
row,melting point [°C],SMILES
1,177 to 178,CCCCNC(=O)NS(=O)(=O)c1ccccc1NC(=O)c1cccc(OCc2ccccc2)c1
2,220 to 221,"O=C(Nc1ccccc1S(=O)(=O)NC(=O)c1ccc(C(F)(F)F)cc1)c1cccc(OCc2ccccc2)c1 [Example 4, N-[2-(3-Benzyloxybenzamido)benzenesulfonyl]-4-trifluoromethylbenzamide]"
3,233 to 234,"O=C(Nc1ccccc1S(=O)(=O)NC(=O)c1ccc([N+](=O)[O-])cc1)c1cccc(OCc2ccccc2)c1 [Example 5, N-[2-(3-Benzyloxybenzamido)benzenesulfonyl]-4-nitrobenzamide]"
4,189 to 190,"COc1ccc(C(=O)NS(=O)(=O)c2ccccc2NC(=O)c2cccc(OCc3ccccc3)c2)cc1 [Example 6, N-[2-(3-Benzyloxybenzamido)benzenesulfonyl]-4-methoxybenzamide]"
5,193 to 194,"CC(C)(C)C(=O)NS(=O)(=O)c1ccccc1NC(=O)c1cccc(OCc2ccc(C(C)(C)C)cc2)c1 [Example 12, N-[2-[3-(4-t-Butylbenzyloxy)benzamido]benzenesulfonyl]pivalamide]"
6,148 to 149,"CCCCCC(=O)NS(=O)(=O)c1ccccc1NC(=O)c1cccc(OCc2ccc(Cl)cc2)c1 [Example 18, N-[2-[3-(4-Chlorobenzyloxy)benzamido]benzenesulfonyl]hexanamide]"
7,112 to 113,"CCCCCC(=O)NS(=O)(=O)c1ccccc1NC(=O)c1cccc(OCC2CCCCC2)c1 [Example 27, N-[2-(3-Cyclohexylmethoxybenzamido)benzenesulfonyl]hexanamide]"
8,190 to 191,"CC(=O)NS(=O)(=O)c1ccccc1NC(=O)c1cccc(OCc2ccc(C(C)(C)C)cc2)c1 [Example 29, N-[2-[3-(4-t-Butylbenzyloxy)benzamido]benzenesulfonyl]acetamide]"
9,164 to 165,"CC(=O)NS(=O)(=O)c1ccccc1NC(=O)c1cccc(OCc2ccc(C(F)(F)F)cc2)c1 [Example 32, N-[2-[3-(4-Trifluoromethylbenzyloxy)benzamido]benzenesulfonyl]acetamide]"
10,214 to 215,"CC(=O)NS(=O)(=O)c1ccccc1NC(=O)c1ccc(C#Cc2ccccc2)cc1 [Example 38, N-[2-(4-Phenylethynylbenzamido)benzenesulfonyl]acetamide]"
11,187 to 188,"CC(C)=CC(=O)NS(=O)(=O)c1ccccc1NC(=O)c1ccc(C#Cc2ccccc2)cc1 [Example 42, 3-Methyl-N-[2-(4-phenylethynylbenzamido)benzenesulfonyl]-2-butenamide]"
